Values quoted from earlier work, collected in US20240164409A1, “A METHOD OF REDUCING METHANE PRODUCTION IN A RUMINANT ANIMAL” (DIT AgTech Limited, priority 2021, published 2024).
Converted amounts (≈) assume the structure as drawn.

Details: for Characterised as: water solubility in words

Compound: O=[N+]([O-])OCCCO [3-nitrooxypropanol]
- Characterised as: Soluble

Compound: BrC(Br)Br [Bromoform]
- Solubility in water: 3.2 mg/mL (≈ 12.7 mM)
- Characterised as: Sparingly soluble
